Experimental data reported in patent publication US9309224B2 (Deciphera Pharmaceuticals, LLC, priority 2013, dated 2016).

What was measured:
[1] = tested on: M-NFS-60 cells; assay: M-NFS-60 cell proliferation assay; type: cell-based; details: 67 h incubation, resazurin
Method: M-NFS-60 Cell Proliferation Assay A serial dilution of test compound was dispensed into a 384-well black clear bottom plate (Corning, Corning, N.Y.). Two thousand five hundred cells were added per well in 50 μL complete growth medium. […] IC50 values were calculated from a series of percent inhibition values determined at a range of inhibitor concentrations using software routines as implemented in the GraphPad Prism software package.

[2] = target: T1, unphosphorylated PDGFRβ kinase (uPDGFRβ, Seq. ID No. 3) (Homo sapiens, UniProt P09619); assay: Unphosphorylated PDGFRβ kinase assay (pyruvate kinase/lactate dehydrogenase coupled); type: biochemical; details: ATP 500 μM
T1 construct: purchased DeCode
T1 sequence (P09619 557-1105): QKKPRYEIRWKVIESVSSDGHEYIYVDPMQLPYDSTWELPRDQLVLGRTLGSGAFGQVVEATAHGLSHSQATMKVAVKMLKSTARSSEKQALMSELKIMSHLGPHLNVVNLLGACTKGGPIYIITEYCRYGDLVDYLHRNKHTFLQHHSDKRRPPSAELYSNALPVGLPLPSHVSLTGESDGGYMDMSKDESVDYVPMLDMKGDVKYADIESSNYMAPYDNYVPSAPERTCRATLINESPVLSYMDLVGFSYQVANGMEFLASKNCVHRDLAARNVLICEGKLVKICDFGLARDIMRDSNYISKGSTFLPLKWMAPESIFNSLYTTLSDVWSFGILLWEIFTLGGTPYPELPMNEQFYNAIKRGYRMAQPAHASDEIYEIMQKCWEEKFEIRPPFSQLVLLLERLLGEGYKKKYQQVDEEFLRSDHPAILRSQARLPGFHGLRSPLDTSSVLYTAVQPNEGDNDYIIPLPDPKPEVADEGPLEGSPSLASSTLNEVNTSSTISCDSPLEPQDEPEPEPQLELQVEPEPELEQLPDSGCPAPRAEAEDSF
Source text: Unphosyhorylated PDGFRβ (uPDGFRβkinase (Seq. ID No. 3) assay

[3] = target: T2, unphosphorylated c-KIT kinase (uKIT, Seq. ID no. 2) (Homo sapiens, UniProt P10721); assay: uKit kinase assay (pyruvate kinase/lactate dehydrogenase coupled); type: biochemical; details: ATP 2000 μM
T2 construct: uKit with N-terminal GST fusion used for
T2 sequence (P10721 with tags, fused parts or gaps): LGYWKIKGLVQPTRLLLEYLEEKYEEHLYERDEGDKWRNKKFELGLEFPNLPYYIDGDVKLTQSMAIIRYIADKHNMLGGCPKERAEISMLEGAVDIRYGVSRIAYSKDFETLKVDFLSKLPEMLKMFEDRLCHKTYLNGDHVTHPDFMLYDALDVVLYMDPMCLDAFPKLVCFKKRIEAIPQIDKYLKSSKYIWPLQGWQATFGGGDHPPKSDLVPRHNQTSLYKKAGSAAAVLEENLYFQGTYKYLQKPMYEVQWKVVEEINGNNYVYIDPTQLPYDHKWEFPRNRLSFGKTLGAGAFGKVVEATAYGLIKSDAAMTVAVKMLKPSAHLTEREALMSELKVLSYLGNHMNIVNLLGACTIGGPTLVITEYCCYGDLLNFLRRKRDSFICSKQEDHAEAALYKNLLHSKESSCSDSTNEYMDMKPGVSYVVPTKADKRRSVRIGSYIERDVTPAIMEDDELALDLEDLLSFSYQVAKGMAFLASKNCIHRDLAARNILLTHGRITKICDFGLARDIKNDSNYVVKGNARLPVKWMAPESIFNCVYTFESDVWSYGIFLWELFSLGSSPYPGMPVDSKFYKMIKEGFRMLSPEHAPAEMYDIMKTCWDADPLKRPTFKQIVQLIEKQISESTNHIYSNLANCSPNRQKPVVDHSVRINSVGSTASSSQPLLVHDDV
Method: In this assay, the oxidation of NADH (thus the decrease at A340 nm) was continuously monitored spectrophometrically. […] The inhibition reaction was started by mixing serial diluted test compound with the above reaction mixture. The absorption at 340 nm was monitored continuously for 4 hours at 30° C. on Synergy 2 plate reader (BioTech).

[4] = target: T3, unphosphorylated c-FMS kinase (uFMS, Seq. ID no. 1) (Homo sapiens, UniProt P07333); assay: uFMS kinase assay (pyruvate kinase/lactate dehydrogenase coupled); type: biochemical; details: ATP 500 μM
T3 construct: purchased Millipore
T3 sequence (P07333 538-972): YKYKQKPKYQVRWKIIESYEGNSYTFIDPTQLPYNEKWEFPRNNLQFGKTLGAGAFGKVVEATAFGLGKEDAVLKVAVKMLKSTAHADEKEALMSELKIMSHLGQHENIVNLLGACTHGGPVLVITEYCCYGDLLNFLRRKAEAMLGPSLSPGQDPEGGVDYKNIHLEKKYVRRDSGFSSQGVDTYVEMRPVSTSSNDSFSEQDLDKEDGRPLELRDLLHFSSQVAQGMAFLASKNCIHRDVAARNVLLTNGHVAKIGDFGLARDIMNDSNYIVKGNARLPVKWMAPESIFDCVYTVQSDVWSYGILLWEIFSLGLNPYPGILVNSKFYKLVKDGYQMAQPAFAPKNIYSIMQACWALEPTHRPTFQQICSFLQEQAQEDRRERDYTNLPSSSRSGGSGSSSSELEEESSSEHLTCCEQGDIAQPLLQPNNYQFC

[5] = target: T4, phospho-FMS in THP-1 cells (Homo sapiens, UniProt P07333); assay: Phospho-FMS ELISA assay in THP-1 cells; type: cell-based; details: 4 hours compound, M-CSF stimulated; read-out: pFMS inhibition in THP-1 cells
T4 construct: endogenous in cells; host or cells: THP-1 (ATCC TIB-202)
T4 sequence (P07333 20-972): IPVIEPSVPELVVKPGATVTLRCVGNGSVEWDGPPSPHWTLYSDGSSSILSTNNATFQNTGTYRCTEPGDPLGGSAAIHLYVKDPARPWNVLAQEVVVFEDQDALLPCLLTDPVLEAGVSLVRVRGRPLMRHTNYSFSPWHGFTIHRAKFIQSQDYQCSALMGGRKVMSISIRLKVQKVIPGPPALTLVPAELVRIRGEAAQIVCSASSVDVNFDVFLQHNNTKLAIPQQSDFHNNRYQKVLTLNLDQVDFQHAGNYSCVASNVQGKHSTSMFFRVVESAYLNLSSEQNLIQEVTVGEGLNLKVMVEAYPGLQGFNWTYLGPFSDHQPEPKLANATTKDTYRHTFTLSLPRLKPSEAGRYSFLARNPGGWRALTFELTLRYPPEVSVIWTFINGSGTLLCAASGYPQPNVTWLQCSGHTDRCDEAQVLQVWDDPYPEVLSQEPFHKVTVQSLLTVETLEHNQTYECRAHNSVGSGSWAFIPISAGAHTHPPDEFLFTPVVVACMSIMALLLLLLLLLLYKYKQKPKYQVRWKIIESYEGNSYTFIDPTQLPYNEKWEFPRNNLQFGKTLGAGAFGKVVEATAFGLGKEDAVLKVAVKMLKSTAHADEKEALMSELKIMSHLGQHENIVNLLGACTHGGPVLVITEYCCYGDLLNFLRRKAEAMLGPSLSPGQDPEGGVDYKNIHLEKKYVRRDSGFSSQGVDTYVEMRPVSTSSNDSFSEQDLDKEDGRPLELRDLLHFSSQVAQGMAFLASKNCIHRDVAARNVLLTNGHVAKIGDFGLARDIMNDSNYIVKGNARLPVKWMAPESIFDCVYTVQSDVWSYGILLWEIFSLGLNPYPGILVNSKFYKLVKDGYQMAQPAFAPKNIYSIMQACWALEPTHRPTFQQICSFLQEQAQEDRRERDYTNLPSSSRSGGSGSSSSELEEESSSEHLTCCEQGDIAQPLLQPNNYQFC
Method: In a separate 96 well black clear bottom plate, one hundred and fifty thousand THP-1 cells were added per well in 100 μL in assay medium. Fifty microliters of diluted compound was then added to the cells. […] Lysates were prepared and used to perform the phospho-FMS ELISA as described by the manufacturer (catalog #DYC3268, R & D Systems, Minneapolis, Minn.). GraphPad Prism was used to calculate IC50 values obtained from data generated from the ELISA assay.

[6] = tested on: osteoclast precursors; assay: Osteoclast tartrate-resistant acid phosphatase assay; type: cell-based; details: Osteoclast; 7-14 days, RANKL and M-CSF
Method: Diluted compound was transferred to a 384-well black clear bottom plate. Two-thousand five hundred osteoclast precursors (Lonza, Walkersville, Md.) were added per well in growth media containing Receptor Activator of Nuclear Factor Kappa-beta ligand (RANKL) and M-CSF (R&D Systems, Minneapolis, Minn.). Plates were incubated for 7-14 days at 37 degrees Celsius, 5% CO2, and 95% humidity to allow differentiation of osteoclast precursors. […] Tartrate-resistant acid phosphatase activity in the supernatant samples was determined using an acid phosphatase assay kit (Sigma, St. Louis, Mo.). Absorbance was measured at 550 nm using a plate reader. Data was analyzed using Prism software (Graphpad, San Diego, Calif.) to calculate IC50 values.

| Compound | IC50 [1] | IC50 [2] | IC50 [3] | IC50 [4] | IC50 [5] | IC50 [6] |
| --- | --- | --- | --- | --- | --- | --- |
| CC1(C(=O)NC(=O)Nc2ccc(Oc3ccnc(NC(=O)C4CC4)c3)cn2)CC1 [Example 30, N-((5-((2-(cyclopropanecarboxamido)pyridin-4-yl)oxy)pyridin-2-yl)carbamoyl)-1-methylcyclopropanecarboxamide] | 10 to 100 nM | 100 to 1000 nM | 10 to 100 nM | < 10 nM | < 10 nM | < 10 nM |
| COC(C)(C)C(=O)NC(=O)Nc1ccc(Oc2ccnc(NC(=O)C3CC3)c2)cn1 [Example 31, N-(4-((6-(3-(2-methoxy-2-methylpropanoyl)ureido)pyridin-3-yl)oxy)pyridin-2-yl)cyclopropanecarboxamide] | 10 to 100 nM | 100 to 1000 nM | 100 to 1000 nM | < 10 nM | < 10 nM | < 10 nM |
| CN1CCC(C(=O)Nc2cc(Oc3ccc(NC(=O)NC(=O)C4(C)CC4)nc3)ccn2)CC1 [Example 33, 1-methyl-N-(4-((6-(3-(1-methylcyclopropanecarbonyl)ureido)pyridin-3-yl)oxy)pyridin-2-yl)piperidine-4-carboxamide] | 100 to 1000 nM | 100 to 1000 nM | > 1000 nM | 10 to 100 nM | 10 to 100 nM | 10 to 100 nM |
| CCC(=O)Nc1cc(Oc2ccc(NC(=O)NC(=O)C3(C)CC3)nc2)ccn1 [Example 36, 1-methyl-N-((5-((2-propionamidopyridin-4-yl)oxy)pyridin-2-yl)carbamoyl)cyclopropanecarboxamide] | 10 to 100 nM | 10 to 100 nM | 100 to 1000 nM | < 10 nM | 10 to 100 nM | < 10 nM |
| CCC(=O)Nc1cc(Oc2ccc(NC(=O)NC(=O)C(C)(C)OC)nc2)ccn1 [Example 37, 2-methoxy-2-methyl-N-((5-((2-propionamidopyridin-4-yl)oxy)pyridin-2-yl)carbamoyl)propanamide] | 10 to 100 nM | 100 to 1000 nM | > 1000 nM | < 10 nM | < 10 nM | 10 to 100 nM |
| COC(C)(C)C(=O)NC(=O)Nc1cc(C)c(Oc2ccnc(NC(C)=O)c2)cn1 [Example 38, N-((5-((2-acetamidopyridin-4-yl)oxy)-4-methylpyridin-2-yl)carbamoyl)-2-methoxy-2-methylpropanamide] | < 10 nM | 10 to 100 nM | 100 to 1000 nM | < 10 nM | < 10 nM | 10 to 100 nM |
| COC1(C(=O)NC(=O)Nc2ccc(Oc3ccnc(NC(=O)C4CC4)c3)cn2)CC1 [Example 41, N-((5-((2-(cyclopropanecarboxamido)pyridin-4-yl)oxy)pyridin-2-yl)carbamoyl)-1-methoxycyclopropanecarboxamide] | 10 to 100 nM | 10 to 100 nM | 100 to 1000 nM | < 10 nM | 10 to 100 nM | < 10 nM |
| CC(=O)Nc1cc(Oc2cnc(NC(=O)NC(=O)C(C)(C)C)cc2C)ccn1 [Example 42, N-((5-((2-acetamidopyridin-4-yl)oxy)-4-methylpyridin-2-yl)carbamoyl)pivalamide] | < 10 nM | 10 to 100 nM | 100 to 1000 nM | < 10 nM | < 10 nM | < 10 nM |
| CC(C)(C)C(=O)NC(=O)Nc1ccc(Oc2ccnc(NC(=O)N3CCOCC3)c2)cn1 [Example 46, N-(4-((6-(3-pivaloylureido)pyridin-3-yl)oxy)pyridin-2-yl)morpholine-4-carboxamide] | < 10 nM | 100 to 1000 nM | 100 to 1000 nM | < 10 nM | < 10 nM | < 10 nM |
| CN(C)[C@H]1CCN(C(=O)Nc2cc(Oc3ccc(NC(=O)NC(=O)C(C)(C)C)nc3)ccn2)C1 [Example 47, (S)-3-(dimethylamino)-N-(4-((6-(3-pivaloylureido)pyridin-3-yl)oxy)pyridin-2-yl)pyrrolidine-1-carboxamide] | < 10 nM | 10 to 100 nM | > 1000 nM | < 10 nM | < 10 nM | < 10 nM |
| CC(C)(C)C(=O)NC(=O)Nc1ccc(Oc2ccnc(NC(=O)N3CCC3)c2)cn1 [Example 48, N-(4-((6-(3-pivaloylureido)pyridin-3-yl)oxy)pyridin-2-yl)azetidine-1-carboxamide] | < 10 nM | 10 to 100 nM | 100 to 1000 nM | < 10 nM | < 10 nM | < 10 nM |
| CNC(=O)c1cc(Oc2ccc(NC(=O)NC(=O)C(C)(C)OC)nc2)ccn1 [Example 58, 4-((6-(3-(2-methoxy-2-methylpropanoyl)ureido)pyridin-3-yl)oxy)-N-methylpicolinamide] | 10 to 100 nM | > 1000 nM | > 1000 nM | 10 to 100 nM | < 10 nM | 10 to 100 nM |
| Cc1nc(NC(=O)NC(=O)C(C)(C)C)ccc1Oc1ccnc(NC(=O)N2CCOCC2)c1 [Example 63, N-(4-((2-methyl-6-(3-pivaloylureido)pyridin-3-yl)oxy)pyridin-2-yl)morpholine-4-carboxamide] | 10 to 100 nM | > 1000 nM | > 1000 nM | < 10 nM | 10 to 100 nM | < 10 nM |
| CNC(=O)c1cc(Oc2ccc(NC(=O)NC(=O)C3(OC)CCCC3)nc2)ccn1 [Example 64, 4-((6-(3-(1-methoxycyclopentanecarbonyl)ureido)pyridin-3-yl)oxy)-N-methylpicolinamide] | 10 to 100 nM | > 1000 nM | 100 to 1000 nM | < 10 nM | < 10 nM | 10 to 100 nM |
| CN(C)C(=O)Nc1cc(Oc2ccc(NC(=O)NC(=O)C3(C)CCOCC3)nc2)ccn1 [Example 65, N-((5-((2-(3,3-dimethylureido)pyridin-4-yl)oxy)pyridin-2-yl)carbamoyl)-4-methyltetrahydro-2H-pyran-4-carboxamide] | 10 to 100 nM | 100 to 1000 nM | 100 to 1000 nM | < 10 nM | 10 to 100 nM | < 10 nM |
| CC(C)C(=O)NC(=O)Nc1ccc(Oc2ccnc(NC(=O)N3CCN(C)CC3)c2)cn1 [Example 66, N-(4-((6-(3-isobutyrylureido)pyridin-3-yl)oxy)pyridin-2-yl)-4-methylpiperazine-1-carboxamide] | < 10 nM | 100 to 1000 nM | > 1000 nM | < 10 nM | < 10 nM | < 10 nM |
| COC1(C(=O)NC(=O)Nc2ccc(Oc3ccnc(NC(C)=O)c3)cn2)CCCC1 [Example 67, N-((5-((2-acetamidopyridin-4-yl)oxy)pyridin-2-yl)carbamoyl)-1-methoxycyclopentanecarboxamide] | < 10 nM | 10 to 100 nM | 100 to 1000 nM | 10 to 100 nM | < 10 nM | < 10 nM |
| CN(C)[C@@H]1CCN(C(=O)Nc2cc(Oc3ccc(NC(=O)NC(=O)C(C)(C)C)nc3)ccn2)C1 [Example 68, (R)-3-(dimethylamino)-N-(4-((6-(3-pivaloylureido)pyridin-3-yl)oxy)pyridin-2-yl)pyrrolidine-1-carboxamide] | < 10 nM | 10 to 100 nM | > 1000 nM | < 10 nM | < 10 nM | < 10 nM |
